Results taken from publication PMC9749936, “Synthesis and structure–activity relationship studies of N-terminal analogues of the lipopeptide antibiotics brevicidine and laterocidine” (RSC Medicinal Chemistry, 2022).
Bridge positions count the residues as written; N and C are the ends. Square brackets hold non-standard residues; d marks the D form. Peptide text beside a SMILES is read from it. * marks the point of attachment. Myristoyl = CCCCCCCCCCCCCC(=O)*; Lauroyl = CCCCCCCCCCCC(=O)*; Decanoyl = CCCCCCCCCC(=O)*; dOrn = NCCC[C@@H](N)C(=O)O; Orn = NCCC[C@H](N)C(=O)O; Butyryl = CCCC(=O)*

Tests used:
E. coli ATCC 25922 = type: cell-based, Escherichia coli; details: ATCC 25922, 18 h
Procedure: (§1) The minimum inhibitory concentrations (MICs) of brevicidine and laterocidine analogues were determined against a panel of clinically relevant ESKAPE pathogens; Escherichia coli (E. coli), Klebsiella pneumoniae (K. pneumoniae), Acinetobacter baumannii (A. baumannii), Pseudomonas aeruginosa (P. aeuroginosa) and Staphylococcus aureus (S. aureus), which cause the majority of nosocomial infections in the United States.[16] […] In this resistance mechanism, the polymyxin target (lipid A) is modified, reducing binding affinity. For this reason, a strain of colistin-resistant E. coli carrying the mcr-1 gene was also included in the panel. […]
(§2) IV. Antimicrobial testing
(§3) All minimum inhibitory concentrations (MICs) were determined according to Clinical and Standards Laboratory Institute (CLSI) guidelines. Blood agar plates were inoculated with glycerol stocks of E. coli ATCC 25922, K. pneumoniae ATCC 13883, A. baumannii ATCC 17961, P. aeruginosa PAO1 and S. aureus USA300. The inoculated agar plates were then incubated for 16 h at 37 °C . Individually grown colonies were subsequently used to inoculate 5 mL aliquots of TSB that were then incubated at 37 °C with shaking at 220 rpm. E. coli 25922 MCR-1 glycerol stock was used to inoculate 5 mL of TSB supplemented with kanamycin that was then incubated for 16 h at 37 °C with shaking at 220 rpm. The next day the culture was diluted 100 fold in TSB supplemented with kanamycin and incubated at 37 °C with shaking at 220 rpm. In parallel, the lipopeptide antibiotics DMSO stocks to be assessed were serially diluted with MHB in polypropylene 96-well plates (50 µL in each well). Colistin sulfate stocks were dissolved in water before being diluted with MHB. Aliquots of the inoculated TSB were incubated until an OD600 of around 0.5 was reached. The bacterial suspensions were then diluted with MHB (2 x 10^5 CFU mL-1) and added to the microplates containing the test compounds (50 µL to each well). The well-plates were sealed with an adhesive membrane and after 18 h of incubation at 37 °C with shaking at 600 rpm, the wells were visually inspected for bacterial […]
(§4) growth. MIC values reported are based on three technical replicates and defined as the lowest concentration of the compound that prevented visible growth of bacteria. […]
(§5) The values obtained from a read-out at 415 nm were corrected for background (negative control) and transformed to a percentage relative to the positive control.
(§6) VI. HPLC and HRMS analysis of peptides
(§7) Peptide Name Chemical Calcd Mass found Calcd Overall […]

E. coli ATCC 25922 MCR-1 = type: cell-based, Escherichia coli; details: colistin-resistant strain carrying mcr-1; CLSI broth microdilution in MHB, 18 h at 37 °C, visual inspection; three technical replicates
Procedure: as §1
Colisitin sulfate was purchased from Activate Scientific. Kanamycin monosulfate was purchased from MP Biomedicals. E. coli ATCC 25922, S. aureus USA300 (ATCC BAA1717), K. pneumoniae ATCC 13883 and A. baumannii ATCC 17961 belong to the American Type Culture Collection (ATCC). P. aeruginosa PAO1 was kindly provided by L.H.C. Quarles Van Ufford, Utrecht University, Utrecht, The Netherlands. E. coli ATCC 25922 MCR-1 was transfected in house using the pGDP2-MCR1 plasmid kindly provided by Yong-Xin Li, The University of Hong Kong, Hong Kong, China. Sheep blood agar plates (Ref. PB5039A) were purchased from Thermo Scientific. Tryptic soy broth (Ref. 02-200-500) was purchased from Scharlab. Mueller-Hinton broth (Ref. X927.1) was purchased from Carl Roth. Polypropylene 96-wells plates (Ref. 3879) were purchased from Corning. […]
(10.0 mL). 2-Chlorotrityl (CT) chloride resin (2.00 g, 0.81 mmol g-1) and DIPEA (420 µL, 2.40 mmol) were added. […]
A gradient […]
method for C14 - C16 laterocidine was employed, starting at 100% solvent A for 2 min, ramping up to 70 % solvent B over 45 min, ramping up to 100% solvent B over 1 min, remaining there for 6 min before ramping down to 100% solvent A and remaining there for 5 min. High resolution mass spectrometry (HRMS) spectra of brevicidine peptides were recorded by Analytical Services and Environmental Projects (ASEP) at Queen’s University Belfast on a Waters LCT Premier ToF mass spectrometer using the electrospray ionisation (ESI) technique. HRMS spectra of laterocidine peptides were performed on a Thermo Scientific Dionex UltiMate 3000 HPLC system with a Phenomenex Kinetex C18 (2.6 µm, 2.1 x 150 mm) column at 35 °C and equipped with a diode array detector. The following solvent system, at a flow rate of 0.3 mL/min, was used: solvent A = 0.1% formic acid in water, solvent B = 0.1% formic acid in acetonitrile. A gradient method was employed, starting at 95 % solvent A and 5 % solvent B for 1 min, ramping up to 95 % solvent B over 9 min, ramping up to 98 % solvent B over 1 min, remaining there for 1 min before ramping back down to 95 % solvent A over 2 min and remaining there for 1 min.
The system was connected to a Bruker micrOTOF-Q II mass spectrometer (ESI ionization) calibrated internally with sodium […]
as §2
as §3, with “MHB.” for “MHB. Aliquots of the inoculated TSB were incubated until an OD600 of around 0.5 was reached. The bacterial suspensions were then diluted with MHB (2 x 10^5 CFU mL-1) and added to the microplates containing the test compounds (50 µL to each well). The well-plates were sealed with an adhesive membrane and after 18 h of incubation at 37 °C with shaking at 600 rpm, the wells were visually inspected for bacterial”

K. pneumoniae ATCC 13883 = type: cell-based, Klebsiella pneumoniae; details: ATCC 13883, 18 h
Procedure: as §1, §2, §3, §4, §5, §6, §7

A. baumannii ATCC 17961 = type: cell-based, Acinetobacter baumannii; details: ATCC 17961, 18 h
Procedure: as §1, §2, §3, §4, §5, §6, §7

P. aeruginosa PAO1 = type: cell-based, Pseudomonas aeruginosa; details: PAO1, 18 h
Procedure: as §1, §2, §3, §4, §5, §6, §7

S. aureus USA300 = type: cell-based, Staphylococcus aureus; details: USA300, 18 h
Procedure: as §1, §2, §3, §4, §5, §6, §7

Sheep red blood cells = type: cell-based; details: red cells of sheep, 1 h, 64 μg mL^−1
Procedure: Having ascertained the antimicrobial activity of all synthetic peptides against a panel of ESKAPE pathogens, we next assessed their mammalian toxicity with hemolytic assays using sheep red blood cells. The % hemolysis for all peptides at 64 μg mL^−1 was determined, with the hemolysis induced by the surfactant 0.1% Triton X-100 taken as 100%. […] Hemolysis was <1% for all analogues with a C8 chain or shorter, including the strongest antibacterial peptide C8-Lat (22). Hemolytic activity increased up to C14 (>50% for C14-Lat) and then decreased at longer chain lengths, perhaps due to decreased solubility of peptides or aggregation. […]
Phosphate-Buffered Saline (PBS) containing 0.002% Tween20 (buffer) five times. Then, the red blood cells were normalized to obtain a positive control read-out between 2.5 and 3.0 at 415 nm to stay within the linear range with the maximum sensitivity. A serial dilution of the compounds (128 – 1 µg/mL, 75 µL) was prepared in a 96-well polypropylene plate. The outer border of the plate was filled with 75 µL buffer. Each plate contained a positive control (0.1% Triton-X final concentration, 75 µL) and a negative control (buffer, 75 µL) in triplicate. The normalized blood cells (75 µL) were added and the plates were incubated at 37 °C for 1 h while shaking at 500 rpm. A flat-bottom polystyrene plate with 100 µL buffer in each well was prepared. After incubation, the plates were centrifuged (800 g for 5 min at room temperature) and 25 µL of the supernatant was transferred to their respective wells in the flat-bottom plate. The values obtained from a read-out at 415 nm were corrected for background (negative control) and transformed to a percentage relative to the positive control. […]

Row | Compound | Antimicrobial activity (MIC) E. coli ATCC 25922 (E. coli ATCC 25922) | Antimicrobial activity (MIC) E. coli ATCC 25922 MCR-1 (E. coli ATCC 25922 MCR-1) | Antimicrobial activity (MIC) K. pneumoniae ATCC 13883 (K. pneumoniae ATCC 13883) | Antimicrobial activity (MIC) A. baumannii ATCC 17961 (A. baumannii ATCC 17961) | Antimicrobial activity (MIC) P. aeruginosa PAO1 (P. aeruginosa PAO1) | Antimicrobial activity (MIC) S. aureus USA300 (S. aureus USA300) | % Hemolytic activity, sheep red blood cells (Sheep red blood cells)
1 | CCCC(=O)N[C@H](CC(N)=O)C(=O)N[C@H](Cc1ccc(O)cc1)C(=O)N[C@H](Cc1c[nH]c2ccccc12)C(=O)N[C@H](CCCN)C(=O)N[C@@H](CCCN)C(=O)NCC(=O)N[C@H](CCCN)C(=O)N[C@@H](Cc1c[nH]c2ccccc12)C(=O)N[C@@H]1C(=O)N[C@@H]([C@@H](C)CC)C(=O)NCC(=O)N[C@@H](CO)C(=O)O[C@@H]1C [Compound 11] (Butyryl-[dN][dY][dW][dOrn][Orn]G[dOrn]WTIGS; ester 9-C) | 32 µg/mL | 32 µg/mL | 8 µg/mL | 32 µg/mL | 16 µg/mL | >32 µg/mL | 0.1%
2 | CCCCCCCCCCCCCC(=O)N[C@H](CC(N)=O)C(=O)N[C@H](Cc1ccc(O)cc1)C(=O)N[C@H](Cc1c[nH]c2ccccc12)C(=O)N[C@H](CCCN)C(=O)N[C@@H](CCCN)C(=O)NCC(=O)N[C@H](CCCN)C(=O)N[C@@H](Cc1c[nH]c2ccccc12)C(=O)N[C@@H]1C(=O)N[C@@H]([C@@H](C)CC)C(=O)NCC(=O)N[C@@H](CO)C(=O)O[C@@H]1C [Compound 16] (Myristoyl-[dN][dY][dW][dOrn][Orn]G[dOrn]WTIGS; ester 9-C) | 16 µg/mL | 16 µg/mL | 32 µg/mL | 4 µg/mL | 32 µg/mL | >32 µg/mL | 18.0%
3 | CCCCCCCCCC(=O)N[C@H](CO)C(=O)N[C@H](Cc1ccc(O)cc1)C(=O)N[C@H](Cc1c[nH]c2ccccc12)C(=O)N[C@H](CCCN)C(=O)N[C@@H](CCCN)C(=O)NCC(=O)N[C@H](CCCN)C(=O)N[C@@H](Cc1c[nH]c2ccccc12)C(=O)N[C@@H]1C(=O)N[C@@H]([C@@H](C)CC)C(=O)N[C@@H](CC(N)=O)C(=O)NCC(=O)NCC(=O)O[C@@H]1C [Compound 23] (Decanoyl-[dS][dY][dW][dOrn][Orn]G[dOrn]WTINGG; ester 9-C) | 2 µg/mL | 2 µg/mL | 2 to 4 µg/mL | 2 µg/mL | 2 µg/mL | >32 µg/mL | 2.1%
4 | CCCCCCCCCCCC(=O)N[C@H](CO)C(=O)N[C@H](Cc1ccc(O)cc1)C(=O)N[C@H](Cc1c[nH]c2ccccc12)C(=O)N[C@H](CCCN)C(=O)N[C@@H](CCCN)C(=O)NCC(=O)N[C@H](CCCN)C(=O)N[C@@H](Cc1c[nH]c2ccccc12)C(=O)N[C@@H]1C(=O)N[C@@H]([C@@H](C)CC)C(=O)N[C@@H](CC(N)=O)C(=O)NCC(=O)NCC(=O)O[C@@H]1C [Compound 24] (Lauroyl-[dS][dY][dW][dOrn][Orn]G[dOrn]WTINGG; ester 9-C) | 4 µg/mL | 4 µg/mL | 8 µg/mL | 2 µg/mL | 8 µg/mL | 32 µg/mL | 21.5%
5 | CCCC(=O)N[C@H](CO)C(=O)N[C@H](Cc1ccc(O)cc1)C(=O)N[C@H](Cc1c[nH]c2ccccc12)C(=O)N[C@H](CCCN)C(=O)N[C@@H](CCCN)C(=O)NCC(=O)N[C@H](CCCN)C(=O)N[C@@H](Cc1c[nH]c2ccccc12)C(=O)N[C@@H]1C(=O)N[C@@H]([C@@H](C)CC)C(=O)N[C@@H](CC(N)=O)C(=O)NCC(=O)NCC(=O)O[C@@H]1C [Compound 20] (Butyryl-[dS][dY][dW][dOrn][Orn]G[dOrn]WTINGG; ester 9-C) | 16 µg/mL | 32 µg/mL | 32 µg/mL | >32 µg/mL | 8 µg/mL | >32 µg/mL | 0.3%
